Experiment [1] deals with Human U937 monocytic cells. Briefly: U937 IFNγ ICAM1 FACS Assay. It is filed as cell-based. An excerpt: (§1) The activity of the compounds of the invention may additionally be characterized by assaying the effect of the 2,4-pyrimidinediamine compounds described herein on A549 lung epithelial cells and U937 cells. A549 lung epithelial cells and U937 cells up-regulate ICAM-1 (CD54) surface expression in response to a variety of different stimuli. Therefore, using ICAM-1 expression as readout, test compound effects on different signaling pathways can be assessed in the same cell type. Stimulation with IL-1β through the IL-1β receptor activates the TRAF6/NFκB pathway resulting in up-regulation of ICAM-1. IFNγ induces ICAM-1 up-regulation through activation of the JAK1/JAK2 pathway. The up-regulation of ICAM-1 can be quantified by flow cytometry across a compound dose curve and EC50 values are calculated. An exemplary assays of this type are described in greater detail in Examples 4 and 5.
Human U937 monocytic cells up-regulate ICAM-1 (CD54) surface expression in response to a variety of different stimuli. Therefore, using ICAM-1 expression as readout, compound effects on different signaling pathways can be assessed in the same cell type. IFNγ up-regulates ICAM-1 through activation of the JAK/Stat pathway. In this example, the up-regulation of ICAM-1 by IFNγ was assessed.
The U937 human monocytic cell line was obtained from ATCC of Rockville Md., catalog number CRL-1593.2, and cultured in RPM1-1640 medium containing 10% (v/v) FCS. U937 cells were grown in 10% RPMI. The cells were then plated at a concentration of 100,000 cells per 160 μL in 96 well flat bottom plates. The test compounds were then diluted as follows: 10 mM test compound was diluted 1:5 in DMSO (3 μL 10 mM test compound in 12 μL DMSO), followed by a 1:3 serial dilution of test compound in DMSO (6 μL test compound serially diluted into 12 μL DMSO to give 3-fold dilutions). Then 4 μL of test compound was transferred to 76 μL of 10% RPMI resulting in a 10× solution (100 μM test compound, 5% DMSO). For control wells, 4 μL of DMSO was diluted into 76 μL 10% RPMI.
The assay was performed in duplicate with 8 points (8 3-fold dilution concentrations from […]) and with 4 wells of DMSO only (control wells) under stimulated conditions and 4 wells of DMSO only under unstimulated conditions.
The diluted compound plate was mixed 2× using a multimek (Beckman Coulter of Brea, Calif.) and then 20 μL of the diluted compounds was transferred to the 96 well plate containing 160 μL of cells, which were then mixed again twice at low speeds. The cells and compounds were then pre-incubated for 30 minutes at 37° C. with 5% CO2.
The 10× stimulation mix was made by preparing a 100 ng/mL solution of human IFNγ in 10% RPMI. The cells and compound were then stimulated with 20 μL of IFNγ stimulation mix to give a final concentration of 10 ng/mL IFNγ, 10 μM test compound, and 0.5% DMSO. The cells were kept under conditions for stimulation for 18-24 hours at 37° C. with 5% CO2.
The cells were transferred to a 96 well round bottom plate for staining and then kept on ice for the duration of the staining procedure. Cells were spun down at 1000 rpm for 5 minutes at 4° C., following which the supernatant was removed. Following removal of the supernatant, 1 μL APC conjugated mouse anti-human ICAM-1 antibody was added per 100 μL FACS buffer. The cells were then incubated on ice in the dark for 30 minutes. Following incubation, 150 μL of FACS buffer was added and the cells were centrifuged at 1000 rpm for 5 minutes at 4° C., following which the supernatant was removed. After removal of the supernatant, 200 μL of FACS buffer was added and the cells were resuspended. After suspension, the cells were centrifuged at 1000 rpm for 5 min at 4° C. Supernatant was then removed prior to resuspension of the cells in 150 μL FACS buffer.
Detection was performed using a BD LSR I System Flow Cytometer, purchased from BD Biosciences of San Jose, Calif. […]

For experiment [2], the system named is A549 lung epithelial cells. Briefly: A549 Epithelial Line Stimulated with IFNγ (ICAM-1 surface expression, FACS). The class given is cell-based, human. The note with it: IFNγ 75 ng/mL, 24 hours, ICAM-1 (CD54) surface expression by flow cytometry; read-out: Example 4 (IC50, A549 epithelial line stimulated with IFNγ).
Description: as §1
A549 lung epithelial cells up-regulate ICAM-1 (CD54) surface expression in response to a variety of different stimuli. Therefore, using ICAM-1 expression as readout, compound effects on different signaling pathways can be assessed in the same cell type. IFNγ up-regulates ICAM-1 through activation of the JAK/Stat pathway. In this example, the up-regulation of ICAM-1 by IFNγ was assessed.
The A549 lung epithelial carcinoma cell line originated from the American Type Culture Collection. Routine culturing was with F12K media (Mediatech Inc., Lenexa, Kans., Cat. No. 10-025-CV) with 10% fetal bovine serum, 100 I.U. penicillin and […] streptomycin (complete F12k media). Cells were incubated in a humidified atmosphere of 5% CO2 at 37° C. Prior to use in the assay, A549 cells were washed with PBS and trypsinized (Mediatech Inc., Cat. No. 25-052-CI) to lift the cells. The trypsin cell suspension was neutralized with complete F12K media and centrifuged to pellet the cells. The cell pellet was resuspended in complete F12K media at a concentration of 2.0×10^5/mL. Cells were seeded at 20,000 per well, 100 μL total volume, in a flat bottom tissue culture plate and allowed to adhere overnight.
On day two, A549 cells were pre-incubated with a 2,4-pyrimidinediamine test compound or DMSO (control) (Sigma-Aldrich, St. Louis, Mo., Catalog No. D2650) for 1 hour. The cells were then stimulated with IFNγ (75 ng/mL) (Peprotech Inc., Rocky Hill, N.J., Cat. No. 300-02) and allowed to incubate for 24 hours. The final test compound dose range was 30 μM to 14 nM in 200 μL F12K media containing 5% FBS, 0.3% DMSO.
On day three, the cell media was removed and the cells were washed with 200 μL PBS (phosphate buffered saline). Each well was trypsinized to dissociate the cells, then neutralized by addition of 200 μL complete F12K media. Cells were pelleted and stained with an APC conjugated mouse anti-human ICAM-1 (CD54) (BD Pharmingen, San Diego, Calif., Catalog #559771) antibody for 20 minutes at 4° C. Cells were washed with ice cold FACS buffer (PBS+2% FBS) and surface ICAM-1 expression was analyzed by flow cytometry. Detection was performed using a BD LSR I System Flow Cytometer, purchased from BD Biosciences of San Jose, Calif. Events were gated for live scatter and the geometric mean was calculated (Becton-Dickinson CellQuest software version 3.3, Franklin Lakes, N.J.). Geometric means were plotted against the compound concentration to generate a dose response curve.

[3] abbreviates: Homo sapiens, U-937, IFNγ 10 ng/mL, 18-24 hours, ICAM-1 expression by flow cytometry, read-out: Example 5 (IC50, U937 IFNγ ICAM1 FACS assay).
Where [4] appears, read: IFNγ 10 ng/mL, 18-24 hours, ICAM-1 expression by flow cytometry, read-out: Example 5 (IC50, U937 IFNγ ICAM1 FACS assay).

Like-named read-outs stand apart in the source and are kept apart here.

One may read the IC50 as the concentration at which inhibition is half-maximal. Consider `Cc1cnc(Nc2ccc(S(N)(=O)=O)cc2)nc1Nc1ccc2c(c1)C(NS(C)(=O)=O)CC2` (racemic) [VI-2, (+/−)-N2-(4-Aminosulfonylphenyl)-5-methyl-N4-[1-(methylsulfonyl)aminoindan-6-yl]-2,4-pyrimidinediamine], for which the IC50 in experiment [1] (setting [3]) was 2580 nM. In the case of `N#CCOc1ccc(Nc2nc(Nc3cccc(CS(N)(=O)=O)c3)ncc2F)cc1` [Compound I-1, N2-[3-(Aminosulfonylmethylene)phenyl]-5-fluoro-N4-(4-cyanomethyleneoxyphenyl)-2,4-pyrimidinediamine], the IC50 in experiment [2] stood at 3070 nM; in experiment [1] (setting [4]) it was 554 nM.

For `CCS(=O)(=O)NCc1ccc(Nc2nc(Nc3ccc(CS(=O)(=O)NC)cc3)ncc2C)cc1` [Compound I-2, N4-(4-ethylsulfonylaminomethyl)phenyl-5-methyl-N2-(4-methylaminosulfonylmethyl)phenyl-2,4-pyrimidinediamine], the values for the IC50 in experiment [2] and in experiment [1] (setting [4]) were 1740 nM and 133 nM, respectively. Taken in the same sequence, the figures for `CNS(=O)(=O)Cc1ccc(Nc2ncc(F)c(Nc3ccc(CNS(=O)(=O)C4CC4)cc3)n2)cc1` [Compound I-8, N4-(4-cyclopropylsulfonylaminomethyl)phenyl-5-fluoro-N2-(4-methylaminosulfonylmethyl)phenyl-2,4-pyrimidinediamine] were 3890 nM and 347 nM. As to `CCS(=O)(=O)NCc1ccc(Nc2nc(Nc3ccc(CS(=O)(=O)NC)cc3)ncc2F)cc1` [Compound I-10, N4-(4-ethylsulfonylaminomethyl)phenyl-5-fluoro-N2-(4-methylaminosulfonylmethyl)phenyl-2,4-pyrimidinediamine], in experiment [1] (setting [4]), the IC50 came to 469 nM.

As for `Cc1cnc(Nc2ccc(CNS(=O)(=O)C3CC3)cc2)nc1Nc1ccc(CNS(=O)(=O)C2CC2)cc1` [II-1, N2,N4-bis(4-cyclopropylsulfonylaminomethyl)phenyl-5-methyl-2,4-pyrimidinediamine], the IC50 was determined as 6230 nM in experiment [2] and 71.3 nM in experiment [1] (setting [4]). Regarding `Cc1cnc(Nc2ccc(CCNS(=O)(=O)C3CC3)cc2)nc1Nc1ccc(CCNS(=O)(=O)C2CC2)cc1` [II-2, N2,N4-bis[4-(2-cyclopropylsulfonylamino)ethyl]phenyl-5-methyl-2,4-pyrimidine diamine], the IC50 in experiment [1] (setting [4]) is 991 nM. As to `COc1cc(Nc2nc(Nc3ccc4c(c3)CN(S(N)(=O)=O)CC4)ncc2F)ccc1Cl` [III-1, N2-(2-Aminosulfonyl-1,2,3,4-tetrahydroisoquinolin-7-yl)-N4-(4-chloro-3-methoxyphenyl)-5-fluoro-2,4-pyrimidinediamine], the IC50 in experiment [1] (setting [3]) amounted to 1080 nM. Same read-out and setting: next, `NS(=O)(=O)N1CCc2ccc(Nc3ncc(F)c(Nc4ccc(CNS(=O)(=O)C5CC5)cc4)n3)cc2C1` [III-2, N2-(2-Aminosulfonyl-1,2,3,4-tetrahydroisoquinolin-7-yl)-N4-[4-(cyclopropylsulfonylaminomethyl)phenyl]-5-fluoro-2,4-pyrimidinediamine]: 164 nM. In the case of `C#CCOc1ccc(Nc2nc(Nc3ccc4c(c3)CN(S(N)(=O)=O)CC4)ncc2F)cc1` [III-4, N2-(2-Aminosulfonyl-1,2,3,4-tetrahydroisoquinolin-7-yl)-N4-(4-(prop-2-ynyloxy)phenyl)-5-fluoro-2,4-pyrimidinediamine], in experiment [1] (Homo sapiens, U-937, read-out: Example 5 (IC50, U937 IFNγ ICAM1 FACS assay)), the IC50 is 462 nM. As for `CC1(C)Oc2cc(Nc3nc(Nc4cccc(CS(N)(=O)=O)c4)ncc3F)cnc2NC1=O` [IV-1, N2-[3-(Aminosulfonylmethylene)phenyl]-N4-[2,2-dimethyl-3-oxo-4H-pyrid[1,4]oxazin-7-yl]-5-fluoro-2,4-pyrimidinediamine], the IC50 in experiment [1] (setting [4]) amounted to 18600 nM. For the compound `CN1C(=O)C(C)(C)Oc2cc(Nc3nc(Nc4cccc(CS(N)(=O)=O)c4)ncc3F)cnc21` [IV-2, N2-[3-(Aminosulfonylmethylene)phenyl]-N4-[2,2-dimethyl-3-oxo-4-methyl-pyrid[1,4]oxazin-7-yl]-5-fluoro-2,4-pyrimidinediamine], the IC50 in experiment [2] turned out to be 3500 nM.

For the origin of these results see US8729087B2, “Compositions and methods for inhibition of the JAK pathway” (Rigel Pharmaceuticals, Inc., priority 2006, dated 2014).
